Reference: patent US9700531B2, “Composition comprising metformin as active ingredient for preventing or treating inflammatory bowel disease” (CATHOLIC UNIVERSITY INDUSTRY ACADEMIC COOPERATION FOUNDATION, priority 2012, dated 2017)
Entries after “also recorded” stand apart in the source; their conditions may differ.

Key:
[1] = tested on: inflammatory bowel disease-induced animal model; test: Inflammatory bowel disease animal model (3.5% DSS water for a week): weight, survival, thickness of small intestine, length of large intestine; format: in vivo, C57BL/6(H-2kb) mouse; conditions: for thickness of the intestine: Metformin 5 mg oral, Etanercept 100 μg subcutaneous or composite, at 3 days after induction
Excerpt: The inventors of the present invention first prepared the animal model with an inflammatory bowel disease in order to identify whether the Metformin of the present invention can treat an inflammatory bowel disease. For an experimental animal, a C57BL/6(H-2kb) mouse was used, and to prepare the animal model with an inflammatory bowel disease, the mouse taken with 3.5% dextran sulfate sodium (DSS) water for a week to prepare an animal model with an inflammatory bowel disease.
The inventors divided the experimental animals into an inflammatory bowel disease-induced animal model group, and an inflammatory bowel disease-induced animal model group, which was administered with Metformin, and for the group being administered with Metformin, 5 mg of Metformin was orally administered at 3 days after the disease was induced.

[2] = tested on: spleen cells of a normal mouse group; test: ELISA of cytokines in culture media of treated cells of the normal mouse group; format: cell-based; conditions: culture media collected at 3 days after treatment
Excerpt: The inventors treated Metformin and the Metformin-Etanercept (Product Name: Enbrel®) composite to the cells of the normal mouse group to identify the effects of Etanercept (Product Name: Enbrel®) and Metformin on the expression of cytokine.

[3] = tested on: spleen cells of a normal mouse group; test: ROS measurement by FACs (ROS antibody, FITC) in spleen cells of a normal mouse group; format: cell-based; conditions: cells collected at 3 days after treatment
Method: The oxidative stress was known to be an important factor involved in the inflammatory responses of various autoimmune diseases. […] Enbrel®) composite and at 3 days later, each cell was collected and reacted with an ROS antibody with a FITC wavelength range, and then, was measured using fluorescence activated cell sorting (FACs).

[4] = tested on: spleen cells of a normal mouse group
[5] = tested on: colorectal tissues of the group with an inflammatory bowel disease; test: Expression of inflammatory cytokines in colorectal tissues and cells of the large intestine of mouse injected with Metformin; format: in vivo
Excerpt: FIGS. 6A-6B illustrate the results of measuring the inflammatory cytokine regulations caused by Metformin in the colorectal tissues and colorectal cells of the group with an inflammatory bowel disease.
Furthermore, the expressions of the inflammatory cytokine IL-10 and TGF-b were increased by Metformin.

[6] = tested on: lymph node of the group with an inflammatory bowel disease; test: Expression of inflammatory cytokines in lymph node of mouse injected with Metformin; format: in vivo
Excerpt: FIG. 7 illustrates the result of measuring the inflammatory cytokine regulations caused by Metformin in the lymph node tissues and cells of the group with an inflammatory bowel disease.

[7] = tested on: Th17 cell and regulatory Treg cell in the spleen; test: Th17 cells and regulatory Treg cells in spleen of mouse injected with Metformin (confocal assay); format: in vivo
[8] = tested on: STAT3, mTOR, AMPK, STAT5 in spleen tissue; test: Signaling molecules in spleen of mouse administered with Metformin (tissue confocal, spleen cell proteins); format: in vivo
[9] = tested on: cell line of human large intestine; test: Gene expression of inflammatory cytokines in cell line of human large intestine treated with Metformin; format: cell-based
Method: The gene expressions of the inflammatory cytokines TNF-α, IL-8, and IL-1b were investigated after the cell line of human large intestine was treated with Metformin.

[10] = 5 mg Metformin orally 3 days after induction, versus control group
[11] = 5 mg Metformin orally, the words describe the control group relative to the Metformin group

Etanercept
thickness of the intestine ([1]; versus control group): thicker
expression of IL-17 (ELISA) [2]: effective in inhibiting
ROS inhibition [3]: no ROS inhibitory effect; also recorded: no effects of ROS inhibition
toxic effects (MTT assay) [4]: no toxic effects

CN(C)C(=N)NC(=N)N [Metformin]
survival rates (in words) [1, 10]: higher survival rates
weights (in words) [1, 10]: increase in weights
survival rate ([1]; 5 mg Metformin orally at 3 days after disease induction, control group had low survival rate): 100%
length of large intestine (histological findings) [1, 11]: shortened length was observed
thickness of small intestine (histological findings) [1, 11]: narrower than the group treated with Metformin
thickness of the intestine ([1]; versus control group): thicker
expression of IL-17 (ELISA) [2]: effective in inhibiting
ROS inhibition [3]: no ROS inhibitory effect; also recorded: no effects of ROS inhibition
expression of IL-6 in colorectal tissues (histological findings) [5]: considerable decrease
expression of IL-8 in colorectal tissues (histological findings) [5]: considerable decrease
expression of IL-17 in colorectal tissues (histological findings) [5]: considerable decrease
expression of TNF-α in colorectal tissues (histological findings) [5]: considerable decrease
gene expressions of the inflammatory cytokines in the cells of the large intestine [5]: considerably inhibited
Foxp3 (regulatory T cell factor) ([5]; large intestine): increased
expression of IL-10 ([5]; large intestine): increased
expression of TGF-b ([5]; large intestine): increased
gene expression of IL-6 in lymph node [6]: considerable decreases
gene expression of IL-17 in lymph node [6]: considerable decreases
gene expression of IL-21 in lymph node [6]: considerable decreases
gene expression of TNF-α in lymph node [6]: considerable decreases
expressions of Th17 cells in spleen [7]: considerably inhibited
regulatory T cells that express Foxp3 in spleen [7]: significantly increased
activated AMPK ([8]; spleen cell proteins): increased
phosphorylated STAT3, 705, and 727 ([8]; spleen cell proteins): significantly inhibited
activity of STA3 in spleen cells ([8]; tissue confocal): considerably inhibited
activity of mTOR in spleen cells ([8]; tissue confocal): considerably inhibited
cells with the activated AMPK ([8]; tissue confocal, spleen): increased
cells with the activated STAT5 ([8]; tissue confocal, spleen): increased
gene expression of IL-1b [9]: inhibited in a Metformin concentration dependent manner
gene expression of IL-8 [9]: inhibited in a Metformin concentration dependent manner
gene expression of TNF-α [9]: inhibited in a Metformin concentration dependent manner
toxic effects (MTT assay) [4]: no toxic effects
